Laboratory results taken from ChEMBL document CHEMBL5465560, “Selectivity Literature for EUbOPEN Chemogenomic Library” (2024).
One block for each compound: values may come before it.

What was measured:
Mu-type opioid receptor = Mu-type opioid receptor (Homo sapiens, UniProt P35372); assay: Selectivity interaction (Panel of kinases, GPCRs, ion channels and transporters (enzymatic assay)) EUB0000266bCl OPRM1
[1] = target: Dual specificity mitogen-activated protein kinase kinase 1 (Homo sapiens, UniProt Q02750); assay: Selectivity interaction (ActivX KiNativ screen (kinase selectivity in THP-1 cell lysates)) EUB0000639a MAP2K1; assay type: subcellular; conditions: lysate, at 5 µM
[2] = target: T1, Muscle, skeletal receptor tyrosine-protein kinase (Homo sapiens) (UniProt O15146); assay: Selectivity interaction (Kinase panel (Invitrogen)) EUB0000639a MUSK; conditions: at 200 nM
T1 sequence (whole entry): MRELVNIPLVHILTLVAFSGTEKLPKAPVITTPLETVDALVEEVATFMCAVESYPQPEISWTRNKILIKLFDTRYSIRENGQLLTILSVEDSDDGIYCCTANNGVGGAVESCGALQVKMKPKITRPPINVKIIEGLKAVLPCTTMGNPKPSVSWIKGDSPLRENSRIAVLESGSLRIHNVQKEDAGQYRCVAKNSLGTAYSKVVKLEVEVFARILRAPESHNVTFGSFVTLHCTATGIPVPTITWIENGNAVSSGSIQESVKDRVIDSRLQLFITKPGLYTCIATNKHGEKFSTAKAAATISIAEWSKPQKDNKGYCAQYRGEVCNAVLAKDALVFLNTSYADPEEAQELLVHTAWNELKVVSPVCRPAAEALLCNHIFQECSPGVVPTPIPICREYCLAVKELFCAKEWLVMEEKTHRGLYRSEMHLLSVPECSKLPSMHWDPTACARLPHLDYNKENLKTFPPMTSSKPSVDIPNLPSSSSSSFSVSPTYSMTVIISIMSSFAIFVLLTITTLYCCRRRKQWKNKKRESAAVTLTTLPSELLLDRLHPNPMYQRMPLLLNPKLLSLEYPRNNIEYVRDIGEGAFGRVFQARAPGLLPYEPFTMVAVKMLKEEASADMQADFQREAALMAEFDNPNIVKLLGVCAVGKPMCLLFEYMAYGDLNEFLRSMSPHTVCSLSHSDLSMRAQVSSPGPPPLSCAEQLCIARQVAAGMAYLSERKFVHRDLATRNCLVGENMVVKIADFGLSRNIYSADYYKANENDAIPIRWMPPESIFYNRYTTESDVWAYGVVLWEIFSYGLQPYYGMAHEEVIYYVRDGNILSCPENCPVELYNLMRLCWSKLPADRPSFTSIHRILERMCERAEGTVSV

[3] = target: Tyrosine-protein kinase Blk (Homo sapiens) (UniProt P51451); assay: Selectivity interaction (Ambit KINOMEscan and KiNATiv profiling in Jurkat cells) EUB0000090b BLK; assay type: cell-based; conditions: at 1 µM
[4] = target: Transient receptor potential cation channel subfamily M member 6 (Homo sapiens) (UniProt Q9BX84); assay: Selectivity interaction (Ambit KINOMEscan and KiNATiv profiling in Jurkat cells) EUB0000090b TRPM6; assay type: cell-based; conditions: at 1 µM
[5] = target: T2, Serine/threonine-protein kinase LATS2 (Homo sapiens) (UniProt Q9NRM7); assay: Selectivity interaction (KinomeScan (DiscoverX)) EUB0000229b LATS2; conditions: at 10 µM
T2 sequence (whole entry): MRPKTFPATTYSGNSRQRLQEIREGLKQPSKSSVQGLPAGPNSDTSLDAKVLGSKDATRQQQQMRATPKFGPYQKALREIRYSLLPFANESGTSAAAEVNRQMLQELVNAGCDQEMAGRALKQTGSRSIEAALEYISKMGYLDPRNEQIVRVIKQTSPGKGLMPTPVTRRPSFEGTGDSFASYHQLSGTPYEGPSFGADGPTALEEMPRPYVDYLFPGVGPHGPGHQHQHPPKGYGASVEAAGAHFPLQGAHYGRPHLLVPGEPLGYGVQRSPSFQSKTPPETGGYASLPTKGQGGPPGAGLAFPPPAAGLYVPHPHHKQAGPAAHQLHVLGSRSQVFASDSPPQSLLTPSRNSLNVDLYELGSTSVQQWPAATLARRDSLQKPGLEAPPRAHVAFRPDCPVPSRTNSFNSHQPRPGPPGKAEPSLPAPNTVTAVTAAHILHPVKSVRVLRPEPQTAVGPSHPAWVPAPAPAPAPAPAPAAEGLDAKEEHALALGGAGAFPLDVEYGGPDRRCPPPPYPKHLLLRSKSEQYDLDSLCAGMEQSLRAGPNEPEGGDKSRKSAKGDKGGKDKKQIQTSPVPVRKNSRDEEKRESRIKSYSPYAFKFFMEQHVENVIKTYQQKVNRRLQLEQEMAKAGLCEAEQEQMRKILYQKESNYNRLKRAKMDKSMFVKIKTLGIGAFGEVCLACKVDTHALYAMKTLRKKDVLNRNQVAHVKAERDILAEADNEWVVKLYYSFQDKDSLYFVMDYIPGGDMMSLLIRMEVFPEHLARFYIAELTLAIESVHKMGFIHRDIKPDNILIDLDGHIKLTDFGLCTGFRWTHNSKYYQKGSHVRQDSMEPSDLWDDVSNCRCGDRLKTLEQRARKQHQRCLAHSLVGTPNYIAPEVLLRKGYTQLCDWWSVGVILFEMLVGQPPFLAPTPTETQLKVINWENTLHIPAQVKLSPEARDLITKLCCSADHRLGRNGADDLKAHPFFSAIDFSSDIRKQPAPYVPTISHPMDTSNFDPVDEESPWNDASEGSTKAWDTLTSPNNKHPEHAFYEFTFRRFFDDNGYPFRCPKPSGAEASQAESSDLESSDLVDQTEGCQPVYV

[6] = target: Cyclin-dependent kinase 18 (Homo sapiens) (UniProt Q07002); assay: Selectivity interaction (KinomeScan (DiscoverX)) EUB0001619a CDK18; conditions: at 1 µM
Chain of Cyclin-dependent kinase 18 (Homo sapiens) (Q07002 whole entry): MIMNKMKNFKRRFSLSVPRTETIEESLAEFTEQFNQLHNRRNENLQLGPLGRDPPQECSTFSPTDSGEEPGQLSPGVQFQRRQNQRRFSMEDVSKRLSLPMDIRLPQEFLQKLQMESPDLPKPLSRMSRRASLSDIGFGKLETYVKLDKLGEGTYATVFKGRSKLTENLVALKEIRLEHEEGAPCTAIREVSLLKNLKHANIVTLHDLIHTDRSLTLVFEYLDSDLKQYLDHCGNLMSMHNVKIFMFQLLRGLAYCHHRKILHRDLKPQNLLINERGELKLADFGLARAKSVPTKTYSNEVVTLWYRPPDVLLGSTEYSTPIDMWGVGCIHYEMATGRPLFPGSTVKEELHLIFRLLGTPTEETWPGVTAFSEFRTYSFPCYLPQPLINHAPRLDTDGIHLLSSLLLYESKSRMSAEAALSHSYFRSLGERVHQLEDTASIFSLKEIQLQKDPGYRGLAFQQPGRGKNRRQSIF

Chain of Mu-type opioid receptor (P35372 whole entry): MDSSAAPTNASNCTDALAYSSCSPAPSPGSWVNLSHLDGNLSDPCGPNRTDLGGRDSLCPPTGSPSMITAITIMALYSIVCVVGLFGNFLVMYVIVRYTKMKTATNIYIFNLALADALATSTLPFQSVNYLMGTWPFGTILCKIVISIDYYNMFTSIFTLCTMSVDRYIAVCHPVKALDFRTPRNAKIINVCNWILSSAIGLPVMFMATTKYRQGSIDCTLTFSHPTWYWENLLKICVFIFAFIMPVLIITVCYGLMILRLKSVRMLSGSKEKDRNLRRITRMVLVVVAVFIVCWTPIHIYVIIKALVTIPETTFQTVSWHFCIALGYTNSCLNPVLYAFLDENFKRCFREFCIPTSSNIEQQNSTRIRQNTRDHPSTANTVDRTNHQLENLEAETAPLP
Chain of Dual specificity mitogen-activated protein kinase kinase 1 (Q02750 whole entry): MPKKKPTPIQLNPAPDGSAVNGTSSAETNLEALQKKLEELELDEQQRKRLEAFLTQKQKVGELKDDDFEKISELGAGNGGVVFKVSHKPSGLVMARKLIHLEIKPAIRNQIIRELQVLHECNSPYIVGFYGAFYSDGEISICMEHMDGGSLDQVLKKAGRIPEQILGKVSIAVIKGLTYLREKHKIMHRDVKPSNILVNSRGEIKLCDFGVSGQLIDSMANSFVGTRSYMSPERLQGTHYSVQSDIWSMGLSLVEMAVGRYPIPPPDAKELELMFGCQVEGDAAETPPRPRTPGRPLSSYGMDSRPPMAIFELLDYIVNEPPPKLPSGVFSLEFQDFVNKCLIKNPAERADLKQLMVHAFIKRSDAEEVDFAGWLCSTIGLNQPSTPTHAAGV
Chain of Transient receptor potential cation channel subfamily M member 6 (Homo sapiens) (Q9BX84 whole entry): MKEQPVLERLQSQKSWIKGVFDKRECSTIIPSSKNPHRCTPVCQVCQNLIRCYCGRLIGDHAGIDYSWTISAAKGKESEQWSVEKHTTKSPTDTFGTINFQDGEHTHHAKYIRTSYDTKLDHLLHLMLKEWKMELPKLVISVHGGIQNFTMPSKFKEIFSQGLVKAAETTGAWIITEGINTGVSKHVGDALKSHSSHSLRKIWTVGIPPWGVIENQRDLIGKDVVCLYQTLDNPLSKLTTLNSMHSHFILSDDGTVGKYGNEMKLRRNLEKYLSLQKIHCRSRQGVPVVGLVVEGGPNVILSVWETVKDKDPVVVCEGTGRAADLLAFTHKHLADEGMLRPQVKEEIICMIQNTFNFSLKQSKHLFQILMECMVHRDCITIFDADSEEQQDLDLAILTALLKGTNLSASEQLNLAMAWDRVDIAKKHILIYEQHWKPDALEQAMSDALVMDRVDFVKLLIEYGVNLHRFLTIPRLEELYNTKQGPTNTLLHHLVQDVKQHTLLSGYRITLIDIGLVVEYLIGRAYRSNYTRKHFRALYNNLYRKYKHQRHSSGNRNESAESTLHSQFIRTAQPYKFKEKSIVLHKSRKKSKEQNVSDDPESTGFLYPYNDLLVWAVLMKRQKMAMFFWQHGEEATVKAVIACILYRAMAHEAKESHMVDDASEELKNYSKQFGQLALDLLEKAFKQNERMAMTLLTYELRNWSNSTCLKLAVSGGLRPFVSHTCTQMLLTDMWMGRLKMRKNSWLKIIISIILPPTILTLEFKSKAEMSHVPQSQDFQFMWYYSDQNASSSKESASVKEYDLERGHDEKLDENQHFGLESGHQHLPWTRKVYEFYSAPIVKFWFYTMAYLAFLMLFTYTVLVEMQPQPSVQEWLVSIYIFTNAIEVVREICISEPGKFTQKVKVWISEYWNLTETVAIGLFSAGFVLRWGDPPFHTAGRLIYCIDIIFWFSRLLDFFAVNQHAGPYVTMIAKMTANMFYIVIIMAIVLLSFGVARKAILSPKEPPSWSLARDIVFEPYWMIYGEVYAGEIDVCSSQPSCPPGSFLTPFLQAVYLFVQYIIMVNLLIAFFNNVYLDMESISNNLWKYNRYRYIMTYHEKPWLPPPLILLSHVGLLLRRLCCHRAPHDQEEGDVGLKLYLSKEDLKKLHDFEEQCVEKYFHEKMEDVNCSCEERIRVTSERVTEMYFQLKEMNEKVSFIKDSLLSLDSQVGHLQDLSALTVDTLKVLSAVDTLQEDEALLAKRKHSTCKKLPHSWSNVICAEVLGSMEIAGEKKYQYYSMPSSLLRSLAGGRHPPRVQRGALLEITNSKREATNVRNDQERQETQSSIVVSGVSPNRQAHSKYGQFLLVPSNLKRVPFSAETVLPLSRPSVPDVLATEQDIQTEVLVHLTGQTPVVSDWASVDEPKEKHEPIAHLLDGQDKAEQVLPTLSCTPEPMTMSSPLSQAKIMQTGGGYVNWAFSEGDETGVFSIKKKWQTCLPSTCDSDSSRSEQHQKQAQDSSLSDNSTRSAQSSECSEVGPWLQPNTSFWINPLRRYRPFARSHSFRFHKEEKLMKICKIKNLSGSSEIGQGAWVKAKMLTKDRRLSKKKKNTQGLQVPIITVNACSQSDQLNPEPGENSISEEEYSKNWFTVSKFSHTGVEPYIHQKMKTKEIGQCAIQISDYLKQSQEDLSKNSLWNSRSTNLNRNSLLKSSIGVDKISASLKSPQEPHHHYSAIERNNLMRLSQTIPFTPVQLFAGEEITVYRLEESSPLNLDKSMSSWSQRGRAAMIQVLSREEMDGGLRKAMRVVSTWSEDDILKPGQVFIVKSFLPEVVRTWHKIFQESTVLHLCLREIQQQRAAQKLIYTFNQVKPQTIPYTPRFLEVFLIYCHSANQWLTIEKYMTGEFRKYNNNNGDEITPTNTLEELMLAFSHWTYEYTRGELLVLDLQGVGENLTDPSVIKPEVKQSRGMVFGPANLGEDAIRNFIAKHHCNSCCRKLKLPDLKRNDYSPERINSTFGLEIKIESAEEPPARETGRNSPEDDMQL
Chain of Tyrosine-protein kinase Blk (Homo sapiens) (P51451 2-505 limits assumed): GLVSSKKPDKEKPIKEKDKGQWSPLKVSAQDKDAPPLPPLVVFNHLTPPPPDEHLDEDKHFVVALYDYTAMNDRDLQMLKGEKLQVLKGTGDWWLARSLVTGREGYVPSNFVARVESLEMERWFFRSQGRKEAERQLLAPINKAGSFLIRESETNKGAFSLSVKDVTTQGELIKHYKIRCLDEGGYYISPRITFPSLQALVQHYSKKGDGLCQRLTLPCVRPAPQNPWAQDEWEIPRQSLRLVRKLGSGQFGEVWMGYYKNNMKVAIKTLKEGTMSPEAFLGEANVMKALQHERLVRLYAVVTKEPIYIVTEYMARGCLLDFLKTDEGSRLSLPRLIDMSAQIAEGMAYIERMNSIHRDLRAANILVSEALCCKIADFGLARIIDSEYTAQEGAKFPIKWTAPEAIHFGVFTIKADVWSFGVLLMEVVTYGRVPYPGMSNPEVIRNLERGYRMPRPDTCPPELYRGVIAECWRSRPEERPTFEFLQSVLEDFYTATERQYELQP

pXC50 (Mu-type opioid receptor): < 4 M
Compound: CCn1c(-c2nc3cc(C(=O)N4CCCC(N)C4)ccc3n2C)cc2ccccc21 (configuration not stated)

% of inhibition [1]: 20.8% | % of inhibition [2]: -2.77%
Compound: CC[C@@H]1[C@H](F)C(=O)N[C@@H]1COc1nccc2cc(C(N)=O)c(OC)cc12 [ZIMLOVISERTIB]

Compound: CN(C)C/C=C/C(=O)Nc1ccc(C(=O)N2CCCC(Nc3ncc(Cl)c(-c4c[nH]c5ccccc45)n3)C2)cc1 (configuration not stated)
% of control [3]: 84% | % of control [4]: 88%

Compound: COc1cc(N(C)c2ccnc3ccc(C(F)(F)F)cc23)cc(OC)c1OC
% binding [5]: 89%

Compound: N#Cc1cccc(-c2c[nH]c3ncnc(N4CCOCC4)c23)c1
% of control [6]: 100%
